Key:
[1] = system: animal models of schizophrenia; conditions: cited from earlier work
[2] = system: DOI-induced head twitches in mice; assay: DOI-induced head twitch test; assay type: in vivo
Method: The experiments were performed according to the procedure described in our previous studies. Briefly, to habituate mice to the experimental environment, each animal was transferred to a 12 cm (diameter) × 20 cm (height) glass cage lined with sawdust 30 min before treatment. Test compounds were administered intraperitoneally (i.p.) at doses of 2.5, 5, and 10 mg/kg body weight 60 min before the test was performed. The head twitch response (HTR) in mice was induced using DOI (2.5 mg/kg, i.p.). Immediately after treatment, the number of head twitches was counted during a 20 min session.

| SMILES | DOI-induced head twitches [1] | MK-801-induced disruptions in social interaction [1] | cognitive impairment in novel object recognition [1] | prepulse inhibition (PPI) [1] | activity in animal models of schizophrenia ([1]; mGlu7 NAMs) | DOI-induced head twitches in mGlu7 knockout (KO) mice ([2]; mGlu7 KO mice) | number of DOI-induced head shakes ([2]; mice, 2.5, 5, and 10 mg/kg i.p., vs control group) |
| --- | --- | --- | --- | --- | --- | --- | --- |
| CCc1nc2c(o1)CC(c1ccc(C)cc1C)CC2=O (stereo not shown) [ADX71743, reference compound] | active | active | active | active | antipsychotic activity | – | – |
| COc1cccc(-c2ccc3nc(-c4ccccc4Cl)n(C)c(=O)c3c2)c1OC [ALX-171, 2-(2-chlorophenyl)-6-(2,3-dimethoxyphenyl)-3-methylquinazolin-4(3H)-one] | – | – | – | – | – | had no further effect | significantly attenuated |

Source: PMC9916658, “Design and Synthesis of New Quinazolin-4-one Derivatives with Negative mGlu7 Receptor Modulation Activity and Antipsychotic-Like Properties” (International Journal of Molecular Sciences, 2023)
